According to ChEMBL document CHEMBL3243997, “(Acylaryloxy)acetic acid diuretics. 2. (2-Alkyl-2-aryl-1-oxo-5-indanyloxy)acetic acids” (1978):

Experiments:
Rattus norvegicus [1] = experiment: Natriuretic activity in rat assessed as per cage at 27 mg/kg, po; assay type: functional
Pan troglodytes [2] = experiment: Natriuretic activity in chimpanzee assessed as change in Curate to Cinsulin ratio at 5 mg/kg, po; assay type: functional
Canis familiaris [3] = experiment: Diuretic activity in dog assessed as sodium level in urine per min at 5 mg/kg, iv relative to control; assay type: functional, Canis lupus familiaris
Canis familiaris [4] = experiment: Diuretic activity in dog assessed as chloride level in urine per min at 5 mg/kg, iv relative to control; assay type: functional, Canis lupus familiaris
Rattus norvegicus [5] = experiment: Natriuretic activity in rat assessed as per cage at 81 mg/kg, po; assay type: functional
Rattus norvegicus [6] = experiment: Natriuretic activity in rat assessed as per cage at 9 mg/kg, po; assay type: functional
Rattus norvegicus [7] = experiment: Natriuretic activity in rat assessed as per cage at 3 mg/kg, po; assay type: functional
Canis familiaris [8] = experiment: Diuretic activity in dog assessed as […] urine volume at 5 mg/kg, iv relative to control; assay type: functional, Canis lupus familiaris
Pan troglodytes [9] = experiment: Natriuretic activity in chimpanzee assessed as per min at 5 mg/kg, po; assay type: functional
Canis familiaris [10] = experiment: Diuretic activity in dog assessed as sodium level in urine per min at 1 mg/kg, iv relative to control; assay type: functional, Canis lupus familiaris
Canis familiaris [11] = experiment: Diuretic activity in dog assessed as chloride level in urine per min at 1 mg/kg, iv relative to control; assay type: functional, Canis lupus familiaris
Canis familiaris [12] = experiment: Diuretic activity in dog assessed as potassium level in urine per min at 1 mg/kg, iv relative to control; assay type: functional, Canis lupus familiaris
Canis familiaris [13] = experiment: Diuretic activity in dog assessed as […] urine volume at 1 mg/kg, iv relative to control; assay type: functional, Canis lupus familiaris

| SMILES | Activity (Rattus norvegicus [1]) [mEq] | Ratio (Pan troglodytes [2]) | Activity (Canis familiaris [3]) [µEq/min] | Activity (Canis familiaris [4]) [µEq/min] | Activity (Rattus norvegicus [5]) [mEq] | Activity (Rattus norvegicus [6]) [mEq] | Activity (Rattus norvegicus [7]) [mEq] | Activity (Canis familiaris [8]) [mL] | Activity (Pan troglodytes [9]) [uEq] | other results |
| --- | --- | --- | --- | --- | --- | --- | --- | --- | --- | --- |
| Cc1c(OCC(=O)O)cc2c(c1Cl)C(=O)C(C)(c1ccccc1)C2 (configuration not stated) | 1.38 | 0.31 | 226 | 262 | 1.62 | 1.16 | 1.35 | 4 | 479 |  |
| CCC1(c2ccccc2)Cc2cc(OCC(=O)O)c(Cl)c(Cl)c2C1=O (configuration not stated) | 1.19 | 0.12 | 431 | 396 | 1.34 | 1.15 | 0.75 | 4 | 369 |  |
| O=C(O)COc1cc2c(c(Cl)c1Cl)C(=O)C(c1ccccc1)(C1CCCC1)C2 (configuration not stated) | 0.31 | 0 | 11 | 0.9 | 0.35 | 0.4 | 0.79 | 0.8 | 47 |  |
| O=C(O)COc1cc2c(c(Cl)c1Cl)C(=O)C(c1ccccc1)(c1ccccc1)C2 | 1.09 | 0.03 | 44 | 5 | 0.95 | 0.93 | 0.4 | 2 | 19 |  |
| O=C(O)COc1cc2c(c(Cl)c1Cl)C(=O)C1(c3ccccc3)CCCCC21 (configuration not stated) | 0.86 | 0.08 | 276 | 211 | 1.17 | 0.65 | 0.47 | 4 | 137 |  |
| CC1(c2ccc(F)cc2)Cc2cc(OCC(=O)O)c(Cl)c(Cl)c2C1=O (configuration not stated) | 1.23 | 0.43 | 352 | 362 | 1.73 | 0.86 | 1.01 | 3 | 310 |  |
| CC1(c2ccc(Cl)cc2)Cc2cc(OCC(=O)O)c(Cl)c(Cl)c2C1=O (configuration not stated) | 0.25 | 0.25 | 305 | 282 | 0.37 | 0.3 | 0.21 | 6 | 302 |  |
| CC1(c2ccc(Br)cc2)Cc2cc(OCC(=O)O)c(Cl)c(Cl)c2C1=O (configuration not stated) | 0.27 | 0.01 | 96 | 34 | 0.42 | 0.29 | 0.21 | 3 | 27 |  |
| COc1ccc(C2(C)Cc3cc(OCC(=O)O)c(Cl)c(Cl)c3C2=O)cc1 (configuration not stated) | 1.29 | 0.01 |  |  |  | 0.76 | 0.45 |  | 459 |  |
| CC1(c2cccs2)Cc2cc(OCC(=O)O)c(Cl)c(Cl)c2C1=O (configuration not stated) | 1.41 | 0.47 | 503 | 598 | 1.77 | 0.79 | 0.46 | 5 | 416 |  |
| CC1(c2ccc(N)cc2)Cc2cc(OCC(=O)O)c(Cl)c(Cl)c2C1=O (configuration not stated) | 0.98 | 0.1 | 1130 | 1180 | 1.34 | 0.53 | 0.33 | 10 | 244 |  |
| CC1(c2ccc(O)cc2)Cc2cc(OCC(=O)O)c(Cl)c(Cl)c2C1=O (configuration not stated) | 0.35 | 0.02 | 1260 | 1460 |  | 0.33 | 0.17 | 10 | 151 |  |
| CC1(c2ccc(CN)cc2)Cc2cc(OCC(=O)[O-])c(Cl)c(Cl)c2C1=O.[Na+] (configuration not stated) | 0.27 | 0 | 497 | 424 | 0.19 | 0.17 | 0.18 | 5 | 135 |  |
| CC1(c2ccc([N+](=O)[O-])cc2)Cc2cc(OCC(=O)O)c(Cl)c(Cl)c2C1=O (configuration not stated) | 1.68 | 0.03 | 751 | 810 | 1.98 | 1.02 | 0.89 | 8 | 176 |  |
| CC1(c2ccc(S(N)(=O)=O)cc2)Cc2cc(OCC(=O)O)c(Cl)c(Cl)c2C1=O (configuration not stated) | 0.86 | 0 |  |  |  | 0.29 | 0.32 |  | 674 |  |
| CC(=O)c1ccc(C2(C)Cc3cc(OCC(=O)O)c(Cl)c(Cl)c3C2=O)cc1 (configuration not stated) | 0.81 | 0.08 |  |  | 1.63 | 0.62 | 0.49 |  | 608 |  |
| CC1(c2ccccc2)Cc2cc(OCc3nnn[nH]3)c(Cl)c(Cl)c2C1=O (configuration not stated) | 0.2 | 0.09 | 279 | 245 | 0.4 | 0.17 | 0.28 | 3 | 44 |  |
| CC1(c2ccccc2)Cc2cc(OCC(=O)O)c(Cl)c(Cl)c2C1=O (racemic) [INDACRINONE] |  |  |  |  |  |  |  |  |  | Activity (Rattus norvegicus [1]; 27 mg/kg): 1.29 mEq; Ratio (Pan troglodytes [2]; 5 mg/kg): 0.38; Activity (Canis familiaris [3]; 5 mg/kg): 920 µEq/min; Activity (Canis familiaris [4]; 5 mg/kg): 1010 µEq/min; Activity (Rattus norvegicus [5]; 81 mg/kg): 1.89 mEq; Activity (Rattus norvegicus [6]; 9 mg/kg): 0.97 mEq; Activity (Rattus norvegicus [7]; 3 mg/kg): 0.86 mEq; Activity (Canis familiaris [8]; 5 mg/kg): 8 mL; Activity (Pan troglodytes [9]; 5 mg/kg): 409 uEq |
| CC1(c2ccccc2)Cc2cc(OCC(=O)O)c(Cl)c(Cl)c2C1=O (single isomer, unassigned; (+)) [INDACRINONE] |  |  |  |  |  |  |  |  |  | Activity (Rattus norvegicus [1]; 27 mg/kg): 0.71 mEq; Ratio (Pan troglodytes [2]; 5 mg/kg): 0.16; Activity (Canis familiaris [3]; 5 mg/kg): 221 µEq/min; Activity (Canis familiaris [4]; 5 mg/kg): 304 µEq/min; Activity (Rattus norvegicus [5]; 81 mg/kg): 0.88 mEq; Activity (Rattus norvegicus [6]; 9 mg/kg): 0.38 mEq; Activity (Rattus norvegicus [7]; 3 mg/kg): 0.77 mEq; Activity (Canis familiaris [8]; 5 mg/kg): 4 mL; Activity (Pan troglodytes [9]; 5 mg/kg): 221 uEq |
| CC1(c2ccccc2)Cc2cc(OCC(=O)O)c(Cl)c(Cl)c2C1=O (single isomer, unassigned; (-)) [INDACRINONE] |  |  |  |  |  |  |  |  |  | Activity (Rattus norvegicus [1]; 27 mg/kg): 1.79 mEq; Ratio (Pan troglodytes [2]; 5 mg/kg): 0.28; Activity (Canis familiaris [3]; 5 mg/kg): 314 µEq/min; Activity (Canis familiaris [4]; 5 mg/kg): 360 µEq/min; Activity (Rattus norvegicus [5]; 81 mg/kg): 2.71 mEq; Activity (Rattus norvegicus [6]; 9 mg/kg): 1.21 mEq; Activity (Rattus norvegicus [7]; 3 mg/kg): 1.01 mEq; Activity (Pan troglodytes [9]; 5 mg/kg): 743 uEq |
| NS(=O)(=O)c1cc(C(=O)O)c(NCc2ccco2)cc1Cl [FUROSEMIDE] | 1.25 | -0.02 |  |  | 2.44 | 0.07 |  |  | 1035 | Activity (Canis familiaris [10]): 960 milliequivalent; Activity (Canis familiaris [11]): 1080 µEq/min; Activity (Canis familiaris [12]): 141 milliequivalent; Activity (Canis familiaris [13]): 3 mL |
| NS(=O)(=O)c1cc2c(cc1Cl)NCNS2(=O)=O [HYDROCHLOROTHIAZIDE] |  |  | 166 | 156 |  | 1.12 |  | 3 | 144 |  |
| CCCN(CCC)S(=O)(=O)c1ccc(C(=O)O)cc1 [PROBENECID] |  | 0.05 |  |  |  |  |  |  |  |  |
